Measurements as given in patent US4877893A, “Process for the preparation of 2-(O-alkyl)-2-thio-1,3,2-oxathiophospholanes” (priority 1987, dated 1989).

Legend:
Experiment in all cases: Fungicidal effect on infected agar nutrient media, colony diameter
Format in all cases: cell-based
[1] = tested on: Sclerotinia sclerotinia; conditions: 3rd day after treatment, untreated control 41.7
Procedure: (§1) Agar nutrient media (Diameter 70 MM, thickness 10 mm) infected by Sclerotonia sclerotinia suspension are treated with 20 EC formulations prepared according to Example 27 and comprising 1, 10, 100 and 1000 ppm, respectively of the active ingredient of the Formula I. The fungicidal effect of the compositions is evaluated on the 3rd day after treatment by measuring the diameter of the Fungi colonies.

[2] = tested on: Penicillium cyclopium; conditions: 7th day after treatment, untreated 26.5
Procedure: as §1
The series of measureents described in Example 35 is carried out except that the agar nutrient media are infected by a Penicillium cyclopium Fungi strain and the test is evaluated on the 7th day after treatment.

[3] = tested on: Alternaria tenuis; conditions: 5th day after treatment, untreated control 36.8
Procedure: as §1
The series of measurements according to Example 35 is carried out except that the agar nutrient media are infected by Alternaria Tenius and evaluation is accomplished on the 5th day after treatment.

SMILES | Diameter of colony (mm) ([1]; 1 ppm) | Diameter of colony (mm) ([1]; 10 ppm) | Diameter of colony (mm) ([1]; 100 ppm) | Diameter of colony (mm) ([1]; 1000 ppm) | Diameter of colony (mm) ([2]; 1 ppm) | Diameter of colony (mm) ([2]; 10 ppm) | Diameter of colony (mm) ([2]; 100 ppm) | Diameter of colony (mm) ([2]; 1000 ppm) | Diameter of colony (mm) ([3]; 1 ppm) | Diameter of colony (mm) ([3]; 10 ppm) | Diameter of colony (mm) ([3]; 100 ppm) | Diameter of colony (mm) ([3]; 1000 ppm)
CC(Cl)COP1(=S)OCC(C)S1 (stereo not drawn) [Compound 25] | 38.8 | 30.3 | 1.0 | 0 | 26.0 | 19.8 | 7.8 | 0 | 33.8 | 24.0 | 6.5 | 0
CCCOP1(=S)OCCS1 (stereo not drawn) [Compound 46, 2-(0-n-propyl)-2-thio-1,3,2-oxathiophospholane] | 34.6 | 28.7 | 4.2 | 0 | 25.1 | 18.9 | 7.9 | 0 | 34.2 | 24.3 | 5.8 | 0
CC1COP(=S)(OC(C)C(C)Cl)S1 (stereo not drawn) [Compound 31] | 37.4 | 29.2 | 4.0 | 0 | 23.6 | 14.9 | 9.0 | 0 | 36.0 | 23.6 | 8.1 | 0
CCCCOP1(=S)OCC(C)S1 (stereo not drawn) [Compound 61, 2-(0-n-butyl)-2-thio-4-methyl-1,3,2-oxathiophospholane] | 35.6 | 28.9 | 2.7 | 0 | 24.0 | 19.0 | 8.3 | 0 | 36.2 | 24.3 | 6.2 | 0
CC(CCl)OP1(=S)OC(C)C(C)S1 (stereo not drawn) [Compound 34, 2-(0-1'-methyl-2'-chloroethyl)-2-thio-4,5-dimethyl-1,3,2-oxathiophospholane] | 34.6 | 23.9 | 1.3 | 0 | 19.7 | 16.5 | 4.9 | 0 | 30.3 | 25.9 | 5.7 | 0
CC(Br)COP1(=S)OC(C)C(C)S1 (stereo not drawn) [Compound 41] | 37.6 | 30.0 | 2.6 | 0 | 24.1 | 16.4 | 4.9 | 0 | 33.8 | 25.1 | 7.3 | 0
CC(Cl)COP1(=S)OC(C)C(C)S1 (stereo not drawn) [Compound 40] | 34.9 | 28.0 | 1.9 | 0 | 18.9 | 20.0 | 6.8 | 0 | 31.3 | 21.7 | 6.1 | 0
CC(CBr)OP1(=S)OCCS1 (stereo not drawn) [Compound 11] | 34.6 | 30.6 | 2.8 | 0 | 24.1 | 17.5 | 8.3 | 0 | 35.9 | 24.1 | 4.6 | 0
CC(CCl)OP1(=S)OC(C)CS1 (stereo not drawn) [Compound 19, 2-(0-1'-methyl-2'-chloroethyl)-2-thio-5-methyl-1,3,2-oxathiophospholane] | 36.5 | 27.4 | 3.9 | 0 | 21.5 | 15.6 | 5.5 | 0 | 32.3 | 21.7 | 4.3 | 0
CCCC(C)OP1(=S)OC(C)C(C)S1 (stereo not drawn) [Compound 66] | 34.8 | 28.8 | 4.0 | 0 | 25.0 | 18.6 | 7.5 | 0 | 34.5 | 24.4 | 7.0 | 0
CC(I)C(C)OP1(=S)OC(C)C(C)S1 (stereo not drawn) [Compound 45] | 39.2 | 30.0 | 1.6 | 0 | 24.2 | 15.5 | 6.0 | 0 | 34.0 | 20.4 | 5.7 | 0
CCC(C)OP1(=S)OCCS1 (stereo not drawn) [Compound 49] | 37.2 | 30.4 | 4.0 | 0 | 26.3 | 20.3 | 7.5 | 0 | 34.3 | 25.9 | 7.0 | 0
CC(C)COP1(=S)OC(C)CS1 (stereo not drawn) [Compound 52, 2-(0-2'-methyl-n-propyI)-2-thio-5-methyl-1,3,2-oxathiophospholane] | 37.1 | 28.6 | 3.0 | 0 | 26.2 | 20.0 | 8.8 | 0 | 34.8 | 26.2 | 4.7 | 0
CC1OP(=S)(OCCI)SC1C (stereo not drawn) [Compound 18] | 38.2 | 28.0 | 1.5 | 0 | 25.2 | 14.2 | 6.3 | 0 | 35.8 | 22.8 | 5.3 | 0
CC(C)OP1(=S)OCCS1 (stereo not drawn) [Compound 57] | 37.8 | 25.9 | 0 | 0 | 18.7 | 20.0 | 6.2 | 0 | 31.7 | 26.0 | 7.1 | 0
CC(Cl)COP1(=S)OCCS1 (stereo not drawn) [Compound 13, 2-(0-2'-methyl-2'-chloroethyl)-2-thio-1,3,2-oxathiophospholane] | 33.9 | 32.1 | 1.7 | 0 | 24.5 | 19.2 | 7.5 | 0 | 32.2 | 25.8 | 5.1 | 0
CC1COP(=S)(OCCI)S1 (stereo not drawn) [Compound 9, 2-(0-2'-iodoethyl)-2-thio-4-methyl-1,3,2-oxathiophospholane] | 39.2 | 27.6 | 3.9 | 0 | 23.2 | 15.8 | 5.7 | 0 | 30.6 | 24.6 | 8.9 | 0
